Common to all, as to assay: relative viability (nuclei count vs DMSO), 5 days (fraction); higher = more cells survive
Compound in assay [1]: CC(C)C[C@H](NC(=O)[C@H](CCc1ccccc1)NC(=O)CN1CCOCC1)C(=O)N[C@@H](Cc1ccccc1)C(=O)N[C@@H](CC(C)C)C(=O)[C@@]1(C)CO1 [Carfilzomib] + CC(=O)c1c(C)c2cnc(Nc3ccc(N4CCNCC4)cn3)nc2n(C2CCCC2)c1=O [Palbociclib] (partner 0.5 µM)
Put shortly:
(§1)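 One day after seeding in 1536-well plates, lung cancer cell lines were dosed by pin tool. Dosing was either single-drug or a fixed anchor-drug dose plus five library-drug doses (not always all listed) in √10 steps. After 5 days, nuclei were stained in one fix-and-stain step and counted on 4× images, and relative viability is the nuclei count of treated wells over that of vehicle wells, given as the median of duplicate plates.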

Compound in the assay “Olaparib + Trametinib”: O=C(c1cc(Cc2n[nH]c(=O)c3ccccc23)ccc1F)N1CCN(C(=O)C2CC2)CC1 [Olaparib] + CC(=O)Nc1cccc(-n2c(=O)n(C3CC3)c(=O)c3c(Nc4ccc(I)cc4F)n(C)c(=O)c(C)c32)c1 [Trametinib] (partner 0.02 µM)
The method in brief:
as §1

Compound in the assay “Olaparib + Alpelisib”: O=C(c1cc(Cc2n[nH]c(=O)c3ccccc23)ccc1F)N1CCN(C(=O)C2CC2)CC1 [Olaparib] + Cc1nc(NC(=O)N2CCC[C@H]2C(N)=O)sc1-c1ccnc(C(C)(C)C(F)(F)F)c1 [Alpelisib] (partner 2 µM)
Put shortly:
as §1

Compound in the assay “Carfilzomib + Pictilisib”: CC(C)C[C@H](NC(=O)[C@H](CCc1ccccc1)NC(=O)CN1CCOCC1)C(=O)N[C@@H](Cc1ccccc1)C(=O)N[C@@H](CC(C)C)C(=O)[C@@]1(C)CO1 [Carfilzomib] + CS(=O)(=O)N1CCN(Cc2cc3nc(-c4cccc5[nH]ncc45)nc(N4CCOCC4)c3s2)CC1 [Pictilisib] (partner 1 µM)
Put shortly: as §1

Data on eight cell lines can be found in the supplement of paper PMC10307832.

As for NCI-H1915, the relative viability in assay [1] (first compound 0.001 µM) was determined as 0.479; in assay [1] (first compound 0.003162 µM) it was 0.513; in assay [1] (first compound 0.01 µM) it was 0.521; in assay [1] (first compound 0.03162 µM), 0.514; in assay [1] (first compound 0.1 µM), 0.0575; with Olaparib + Trametinib (first compound 0.08 µM) it was 0.278. In addition, the relative viability with Olaparib + Trametinib (first compound 0.253 µM) amounted to 0.285; with Olaparib + Trametinib (first compound 2.53 µM), 0.261; in the assay with Olaparib + Trametinib (first compound 8 µM) it was 0.206; with Olaparib + Alpelisib (first compound 0.08 µM), 0.986; in the assay with Olaparib + Alpelisib (first compound 0.253 µM), 0.938; with Olaparib + Alpelisib (first compound 2.53 µM) it was 0.767. Also, the relative viability was 0.59 with Olaparib + Alpelisib (first compound 8 µM); 0.973 in the assay with Carfilzomib + Pictilisib (first compound 0.001 µM); 1 in the assay with Carfilzomib + Pictilisib (first compound 0.003162 µM); 0.8 in the assay with Carfilzomib + Pictilisib (first compound 0.01 µM); 0.572 with Carfilzomib + Pictilisib (first compound 0.03162 µM); 0.123 with Carfilzomib + Pictilisib (first compound 0.1 µM).

Consider NCI-H1944, for which the relative viability was 0.318 in assay [1] (first compound 0.001 µM); 0.361 in assay [1] (first compound 0.003162 µM); 0.372 in assay [1] (first compound 0.01 µM); 0.318 in assay [1] (first compound 0.03162 µM); 0.152 in assay [1] (first compound 0.1 µM); 0.435 with Olaparib + Trametinib (first compound 0.08 µM). Besides, the relative viability with Olaparib + Trametinib (first compound 0.253 µM) came to 0.376; with Olaparib + Trametinib (first compound 2.53 µM) it was 0.372; with Olaparib + Trametinib (first compound 8 µM) it was 0.328; in the assay with Olaparib + Alpelisib (first compound 0.08 µM), 0.881; with Olaparib + Alpelisib (first compound 0.253 µM), 0.743; with Olaparib + Alpelisib (first compound 2.53 µM), 0.699. In addition, the relative viability with Olaparib + Alpelisib (first compound 8 µM) was 0.717; with Carfilzomib + Pictilisib (first compound 0.001 µM), 0.353; with Carfilzomib + Pictilisib (first compound 0.003162 µM) it was 0.344; with Carfilzomib + Pictilisib (first compound 0.01 µM), 0.322; with Carfilzomib + Pictilisib (first compound 0.03162 µM), 0.3; with Carfilzomib + Pictilisib (first compound 0.1 µM), 0.247.

For the cell line NCI-H1975, the relative viability is 0.364 in assay [1] (first compound 0.001 µM); 0.635 in assay [1] (first compound 0.003162 µM); 0.472 in assay [1] (first compound 0.01 µM); 0.119 in assay [1] (first compound 0.03162 µM); 0.107 in assay [1] (first compound 0.1 µM); 0.329 with Olaparib + Trametinib (first compound 0.08 µM). For the same cell line, the relative viability with Olaparib + Trametinib (first compound 0.253 µM) worked out at 0.349; with Olaparib + Trametinib (first compound 2.53 µM) it was 0.395; in the assay with Olaparib + Trametinib (first compound 8 µM) it was 0.307; in the assay with Olaparib + Alpelisib (first compound 0.08 µM), 0.764; with Olaparib + Alpelisib (first compound 0.253 µM) it was 0.594; with Olaparib + Alpelisib (first compound 2.53 µM) it was 0.692. For the same cell line, the relative viability with Olaparib + Alpelisib (first compound 8 µM) was determined as 0.612; with Carfilzomib + Pictilisib (first compound 0.001 µM), 0.284; with Carfilzomib + Pictilisib (first compound 0.003162 µM) it was 0.301; with Carfilzomib + Pictilisib (first compound 0.01 µM), 0.219; with Carfilzomib + Pictilisib (first compound 0.03162 µM), 0.0929; with Carfilzomib + Pictilisib (first compound 0.1 µM), 0.101.

NCI-H1993: the relative viability in assay [1] (first compound 0.001 µM) amounted to 0.667; in assay [1] (first compound 0.003162 µM), 0.658; in assay [1] (first compound 0.01 µM) it was 0.641; in assay [1] (first compound 0.03162 µM), 0.723; in assay [1] (first compound 0.1 µM), 0.383; with Olaparib + Trametinib (first compound 0.08 µM) it was 0.559. For the same cell line, the relative viability with Olaparib + Trametinib (first compound 0.253 µM) came out at 0.57; with Olaparib + Trametinib (first compound 2.53 µM), 0.517; with Olaparib + Trametinib (first compound 8 µM) it was 0.384; in the assay with Olaparib + Alpelisib (first compound 0.08 µM), 0.691; with Olaparib + Alpelisib (first compound 0.253 µM), 0.657; with Olaparib + Alpelisib (first compound 2.53 µM), 0.746. Also, the relative viability in the assay with Olaparib + Alpelisib (first compound 8 µM) is 0.742; in the assay with Carfilzomib + Pictilisib (first compound 0.001 µM), 0.756; with Carfilzomib + Pictilisib (first compound 0.003162 µM), 0.771; with Carfilzomib + Pictilisib (first compound 0.01 µM), 0.717; in the assay with Carfilzomib + Pictilisib (first compound 0.03162 µM), 0.648; in the assay with Carfilzomib + Pictilisib (first compound 0.1 µM), 0.61.

Take NCI-H2009: the relative viability was 0.186 in assay [1] (first compound 0.001 µM); 0.275 in assay [1] (first compound 0.003162 µM); 0.201 in assay [1] (first compound 0.01 µM); 0.0584 in assay [1] (first compound 0.03162 µM); 0.0475 in assay [1] (first compound 0.1 µM); 0.275 with Olaparib + Trametinib (first compound 0.08 µM). The relative viability stood at 0.283 with Olaparib + Trametinib (first compound 0.253 µM); 0.315 with Olaparib + Trametinib (first compound 2.53 µM); 0.267 with Olaparib + Trametinib (first compound 8 µM); 1.28 with Olaparib + Alpelisib (first compound 0.08 µM); 1.03 with Olaparib + Alpelisib (first compound 0.253 µM); 1.09 with Olaparib + Alpelisib (first compound 2.53 µM). Moreover, the relative viability came to 0.976 with Olaparib + Alpelisib (first compound 8 µM); 0.859 with Carfilzomib + Pictilisib (first compound 0.001 µM); 1.07 with Carfilzomib + Pictilisib (first compound 0.003162 µM); 0.753 in the assay with Carfilzomib + Pictilisib (first compound 0.01 µM); 0.126 with Carfilzomib + Pictilisib (first compound 0.03162 µM); 0.0415 in the assay with Carfilzomib + Pictilisib (first compound 0.1 µM).

As to NCI-H2023, the relative viability turned out to be 0.341 in assay [1] (first compound 0.001 µM); 0.344 in assay [1] (first compound 0.003162 µM); 0.405 in assay [1] (first compound 0.01 µM); 0.235 in assay [1] (first compound 0.03162 µM); 0.0653 in assay [1] (first compound 0.1 µM); 0.59 with Olaparib + Trametinib (first compound 0.08 µM). Further, the relative viability with Olaparib + Trametinib (first compound 0.253 µM) was 0.514; with Olaparib + Trametinib (first compound 2.53 µM) it was 0.525; in the assay with Olaparib + Trametinib (first compound 8 µM), 0.489; in the assay with Olaparib + Alpelisib (first compound 0.08 µM), 0.64; with Olaparib + Alpelisib (first compound 0.253 µM), 0.512; with Olaparib + Alpelisib (first compound 2.53 µM), 0.58. The relative viability with Olaparib + Alpelisib (first compound 8 µM) turned out to be 0.501; in the assay with Carfilzomib + Pictilisib (first compound 0.001 µM), 0.213; in the assay with Carfilzomib + Pictilisib (first compound 0.003162 µM), 0.257; in the assay with Carfilzomib + Pictilisib (first compound 0.01 µM), 0.263; in the assay with Carfilzomib + Pictilisib (first compound 0.03162 µM), 0.156; with Carfilzomib + Pictilisib (first compound 0.1 µM), 0.0927.

Regarding NCI-H2085, the relative viability is 0.501 in assay [1] (first compound 0.001 µM); 0.47 in assay [1] (first compound 0.003162 µM); 0.456 in assay [1] (first compound 0.01 µM); 0.371 in assay [1] (first compound 0.03162 µM); 0.265 in assay [1] (first compound 0.1 µM); 0.619 in the assay with Olaparib + Trametinib (first compound 0.08 µM). Further, the relative viability with Olaparib + Trametinib (first compound 0.253 µM) stood at 0.528; in the assay with Olaparib + Trametinib (first compound 2.53 µM) it was 0.504; with Olaparib + Trametinib (first compound 8 µM), 0.523; in the assay with Olaparib + Alpelisib (first compound 0.08 µM), 1.08; with Olaparib + Alpelisib (first compound 0.253 µM), 0.883; with Olaparib + Alpelisib (first compound 2.53 µM), 0.92. The relative viability in the assay with Olaparib + Alpelisib (first compound 8 µM) came to 0.835; with Carfilzomib + Pictilisib (first compound 0.001 µM), 0.443; in the assay with Carfilzomib + Pictilisib (first compound 0.003162 µM), 0.45; with Carfilzomib + Pictilisib (first compound 0.01 µM), 0.48; with Carfilzomib + Pictilisib (first compound 0.03162 µM), 0.306; with Carfilzomib + Pictilisib (first compound 0.1 µM) it was 0.269.

NCI-H2087: the relative viability in assay [1] (first compound 0.001 µM) turned out to be 0.194; in assay [1] (first compound 0.003162 µM), 0.343; in assay [1] (first compound 0.01 µM) it was 0.192; in assay [1] (first compound 0.03162 µM) it was 0.0427; in assay [1] (first compound 0.1 µM), 0.0568; in the assay with Olaparib + Trametinib (first compound 0.08 µM) it was 0.219. Moreover, the relative viability in the assay with Olaparib + Trametinib (first compound 0.253 µM) was 0.208; in the assay with Olaparib + Trametinib (first compound 2.53 µM), 0.215; in the assay with Olaparib + Trametinib (first compound 8 µM), 0.188; in the assay with Olaparib + Alpelisib (first compound 0.08 µM) it was 1.21; with Olaparib + Alpelisib (first compound 0.253 µM), 0.95; with Olaparib + Alpelisib (first compound 2.53 µM), 1.02. Further, the relative viability with Olaparib + Alpelisib (first compound 8 µM) came to 0.706; in the assay with Carfilzomib + Pictilisib (first compound 0.001 µM), 0.802; with Carfilzomib + Pictilisib (first compound 0.003162 µM) it was 0.874; in the assay with Carfilzomib + Pictilisib (first compound 0.01 µM) it was 0.552; with Carfilzomib + Pictilisib (first compound 0.03162 µM) it was 0.0964; with Carfilzomib + Pictilisib (first compound 0.1 µM) it was 0.18.
